Assay results as given in the supplement of paper PMC10307832.

Experiments:
Assay in all cases: relative viability (nuclei count vs DMSO), 5 days (fraction); higher = more cells survive
201T = test system: 201T
Procedure, shortened: (§1)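 Relative viability is defined as nuclei in treated wells over nuclei in vehicle wells. Duplicate plates were run and medians reported. Lung cancer cell lines in 1536-well plates were dosed by pin tool one day after seeding, with one drug or with a fixed anchor-drug dose plus five library-drug doses (not always all listed) in √10 steps, and nuclei were counted after 5 days.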

NCI-H661 = test system: NCI-H661
Procedure, shortened: as §1

H3255 = test system: H3255
Procedure, shortened: as §1

NCI-H1666 = test system: NCI-H1666
Procedure, shortened: as §1

NCI-H1915 = test system: NCI-H1915
Procedure, shortened: as §1

NCI-H650 = test system: NCI-H650
Procedure, shortened: as §1

COR-L 105 = test system: COR-L 105
Procedure, shortened: as §1

RERF-LC-KJ = test system: RERF-LC-KJ
Procedure, shortened: as §1

LCLC-97TM1 = test system: LCLC-97TM1
Procedure, shortened: as §1

NCI-H2087 = test system: NCI-H2087
Procedure, shortened: as §1

NCI-H2405 = test system: NCI-H2405
Procedure, shortened: as §1

PC-14 = test system: PC-14
Procedure, shortened: as §1

EPLC-272H = test system: EPLC-272H
Procedure, shortened: as §1

NCI-H23 = test system: NCI-H23
Procedure, shortened: as §1

NCI-H2126 = test system: NCI-H2126
Procedure, shortened: as §1

NCI-H520 = test system: NCI-H520
Procedure, shortened: as §1

LC-2-ad = test system: LC-2-ad
Procedure, shortened: as §1

NCI-H322M = test system: NCI-H322M
Procedure, shortened: as §1

HCC-827 = test system: HCC-827
Procedure, shortened: as §1

NCI-H647 = test system: NCI-H647
Procedure, shortened: as §1

HCC-78 = test system: HCC-78
Procedure, shortened: as §1

NCI-H2347 = test system: NCI-H2347
Procedure, shortened: as §1

Q: Which results are given for COc1cc(N2CCC(C(N)=O)CC2)ccc1Nc1nc(N)c(Cl)c(Nc2ccccc2S(=O)(=O)C(C)C)n1 [HG-5-88-01] + CS(=O)(=O)CCNCc1ccc(-c2ccc3ncnc(Nc4ccc(OCc5cccc(F)c5)c(Cl)c4)c3c2)o1 [Lapatinib] (partner 2 µM)?
A: relative viability (201T; first compound 0.04 µM): 1.03; relative viability (201T; first compound 0.1265 µM): 0.922; relative viability (201T; first compound 0.4 µM): 1.01; relative viability (201T; first compound 1.265 µM): 1.07; relative viability (201T; first compound 4 µM): 1.14; relative viability (NCI-H661; first compound 0.04 µM): 0.505; relative viability (NCI-H661; first compound 0.1265 µM): 0.518; relative viability (NCI-H661; first compound 0.4 µM): 0.487; relative viability (NCI-H661; first compound 4 µM): 0.542; relative viability (H3255; first compound 0.04 µM): 0.25; relative viability (H3255; first compound 0.1265 µM): 0.249; relative viability (H3255; first compound 0.4 µM): 0.244; relative viability (H3255; first compound 4 µM): 0.212; relative viability (NCI-H1666; first compound 0.04 µM): 0.742; relative viability (NCI-H1666; first compound 0.1265 µM): 0.742; relative viability (NCI-H1666; first compound 0.4 µM): 0.5; relative viability (NCI-H1666; first compound 1.265 µM): 0.463; relative viability (NCI-H1666; first compound 4 µM): 0.293; relative viability (NCI-H1915; first compound 0.04 µM): 0.958; relative viability (NCI-H1915; first compound 0.1265 µM): 1; relative viability (NCI-H1915; first compound 0.4 µM): 0.977; relative viability (NCI-H1915; first compound 1.265 µM): 1; relative viability (NCI-H1915; first compound 4 µM): 0.698; relative viability (NCI-H650; first compound 0.04 µM): 0.962; relative viability (NCI-H650; first compound 0.1265 µM): 1.01; relative viability (NCI-H650; first compound 0.4 µM): 1.14; relative viability (NCI-H650; first compound 1.265 µM): 0.943; relative viability (NCI-H650; first compound 4 µM): 0.475; relative viability (COR-L 105; first compound 0.04 µM): 0.346; relative viability (COR-L 105; first compound 0.1265 µM): 0.375; relative viability (COR-L 105; first compound 0.4 µM): 0.329; relative viability (COR-L 105; first compound 1.265 µM): 0.336; relative viability (COR-L 105; first compound 4 µM): 0.334; relative viability (RERF-LC-KJ; first compound 0.04 µM): 0.833; relative viability (RERF-LC-KJ; first compound 0.1265 µM): 0.774; relative viability (RERF-LC-KJ; first compound 0.4 µM): 0.826; relative viability (RERF-LC-KJ; first compound 1.265 µM): 0.876; relative viability (RERF-LC-KJ; first compound 4 µM): 0.839; relative viability (LCLC-97TM1; first compound 0.04 µM): 0.999; relative viability (LCLC-97TM1; first compound 0.1265 µM): 0.95; relative viability (LCLC-97TM1; first compound 0.4 µM): 0.471; relative viability (LCLC-97TM1; first compound 1.265 µM): 0.683; relative viability (LCLC-97TM1; first compound 4 µM): 0.301; relative viability (NCI-H2087; first compound 0.04 µM): 1.01; relative viability (NCI-H2087; first compound 0.1265 µM): 0.988; relative viability (NCI-H2087; first compound 0.4 µM): 0.989; relative viability (NCI-H2087; first compound 1.265 µM): 0.899; relative viability (NCI-H2087; first compound 4 µM): 0.735; relative viability (NCI-H2405; first compound 0.04 µM): 1.25; relative viability (NCI-H2405; first compound 0.1265 µM): 1.14; relative viability (NCI-H2405; first compound 0.4 µM): 0.992; relative viability (NCI-H2405; first compound 1.265 µM): 0.894; relative viability (NCI-H2405; first compound 4 µM): 0.865; relative viability (PC-14; first compound 0.04 µM): 0.358; relative viability (PC-14; first compound 0.1265 µM): 0.307; relative viability (PC-14; first compound 0.4 µM): 0.242; relative viability (PC-14; first compound 1.265 µM): 0.267; relative viability (PC-14; first compound 4 µM): 0.25; relative viability (EPLC-272H; first compound 0.04 µM): 0.871; relative viability (EPLC-272H; first compound 0.1265 µM): 0.952; relative viability (EPLC-272H; first compound 0.4 µM): 0.994; relative viability (EPLC-272H; first compound 1.265 µM): 0.949; relative viability (EPLC-272H; first compound 4 µM): 0.0809; relative viability (NCI-H23; first compound 0.04 µM): 1.05; relative viability (NCI-H23; first compound 0.1265 µM): 1.23; relative viability (NCI-H23; first compound 0.4 µM): 0.874; relative viability (NCI-H23; first compound 1.265 µM): 1.05; relative viability (NCI-H23; first compound 4 µM): 0.393; relative viability (NCI-H2126; first compound 0.04 µM): 0.649; relative viability (NCI-H2126; first compound 0.1265 µM): 0.712; relative viability (NCI-H2126; first compound 0.4 µM): 0.706; relative viability (NCI-H2126; first compound 1.265 µM): 0.726; relative viability (NCI-H2126; first compound 4 µM): 0.45; relative viability (NCI-H520; first compound 0.04 µM): 0.825; relative viability (NCI-H520; first compound 0.1265 µM): 0.896; relative viability (NCI-H520; first compound 0.4 µM): 0.401; relative viability (NCI-H520; first compound 1.265 µM): 0.813; relative viability (NCI-H520; first compound 4 µM): 0.795; relative viability (LC-2-ad; first compound 0.04 µM): 0.993; relative viability (LC-2-ad; first compound 0.1265 µM): 1.02; relative viability (LC-2-ad; first compound 0.4 µM): 0.876; relative viability (LC-2-ad; first compound 1.265 µM): 0.908; relative viability (LC-2-ad; first compound 4 µM): 0.629; relative viability (NCI-H322M; first compound 0.04 µM): 0.583; relative viability (NCI-H322M; first compound 0.1265 µM): 0.428; relative viability (NCI-H322M; first compound 0.4 µM): 0.492; relative viability (NCI-H322M; first compound 1.265 µM): 0.501; relative viability (NCI-H322M; first compound 4 µM): 0.485; relative viability (HCC-827; first compound 0.04 µM): 0.202; relative viability (HCC-827; first compound 0.1265 µM): 0.211; relative viability (HCC-827; first compound 0.4 µM): 0.17; relative viability (HCC-827; first compound 1.265 µM): 0.197; relative viability (HCC-827; first compound 4 µM): 0.17; relative viability (NCI-H647; first compound 0.04 µM): 0.929; relative viability (NCI-H647; first compound 0.1265 µM): 1.23; relative viability (NCI-H647; first compound 1.265 µM): 1.11; relative viability (NCI-H647; first compound 4 µM): 1.21; relative viability (HCC-78; first compound 0.04 µM): 0.737; relative viability (HCC-78; first compound 0.1265 µM): 0.465; relative viability (HCC-78; first compound 0.4 µM): 0.223; relative viability (HCC-78; first compound 1.265 µM): 0.264; relative viability (HCC-78; first compound 4 µM): 0.226; relative viability (NCI-H2347; first compound 0.04 µM): 1.02; relative viability (NCI-H2347; first compound 0.1265 µM): 0.947; relative viability (NCI-H2347; first compound 0.4 µM): 0.896; relative viability (NCI-H2347; first compound 1.265 µM): 1.01; relative viability (NCI-H2347; first compound 4 µM): 0.887
